Experiments:
NAT = assay: Pineal in situ hybridization for NAT RNA after drug infusion by microdialysis; assay type: in vivo, rat
Method: (§1) Pineal microdialysis was carried out as follows. Immediately before sampling, the rat was anesthetized with halothane briefly, the stylet (or dummy probe) was replaced with a microdialysis proble (CMA12, 20 KD cut off, membrane length 4 mm)(CMA Microdialysis, N. Chelmsford, Mass.) and fixed with plastic glue. The dialysis probe was continuously infused via the microbore PEEK tubing (0.65 mm OD, 0.12 mm ID) at a flow rate of 2 ul/min with artificial CSF (Harvard, Holliston, Mass.). Samples were collected at 10 minutes intervals via the PEEK tube into a 20 ul loop of Pollen 8 automatic injector (BAS, West Lafayette, Ind.), which was on-line with the HPLC system. The sample loop was set to be retained in the load position during the 10 minute cycles and was automatically switched to the injection positions briefly, after which the cycle was repeated. The rats were linked to the apparatus for dialysis through a quartz dual channel swivel (Harvard/Instech, Boston, Mass.) to prevent the tubing from entanglement. All pharmacological agents with molecular weights less than 6,0000 Daltons were delivered to the pineal through the microdialysis tubing. All drugs were infused after dissolving in artificial CSF solution at final concentrations indicated and for the duration described in the figure legends. […]

pineal gland = assay: In vivo pineal microdialysis with drug infusion through the dialysis membrane; on-line HPLC of melatonin and serotonin (5-HT) secretion; design: species or system rat
Method: Adult Sprague Dawley male rats (220-225 g) were house at 20-25° C. with lights on at 11 am (LD 14:10). Food and were available ad libitum throughout the experiment. Illumination was supplied by white fluorescent lamps (600 lux at cage level). Rats were placed in the LD cycles for at least 2 weeks before the start of surgery.
The animals were deeply anesthetized with a combination of Ketamine (10 mg/ml, 0.5 ml/100 g weight, i.p.) and Xylazine (2 mg/ml, 0.5 ml/100 g weight, i.p.). The animals' heads were shaved and positioned in a stereotaxic instrument. A longitudinal incision (approximately 2.5 cm) is made along the midline in the skin from anterior (level of the eyes) to posterior (base of the skull). The sagittal and lambdoid sutures were then exposed by scraping away the periosteum to the temporal muscles. […] The dura was exposed after grinding away the top bone, which was removed using iris forceps after making a cross cut with a scalpel blade (FIG. 1B). […] Bleeding was controlled with cotton wool pledget, or flushed with water and suctioned. Three stainless steel screws were placed nearby in the parietal and frontal bones to serve as anchors. After the animal's head was repositioned 30 degrees downward, the dura matter below the confluence of sinuses was then lifted 5 mm with a hook fixed to the stereotaxic frame (FIG. 1C). The dorsal cerebellum was then pressed downward with a glass blunt tube to expose the pineal gland. The tentorium cerebelli which covers the posterior surface of the pineal and connects to the confluence of the sinuses, was then carefully reflected to visualize the pineal with a micro sharp hook, while the bleeding around the pineal was flushed and suctioned. The pineal vein is visible in the midline of the pineal posterior surface (FIG. 1D) which divides the pineal gland into two parts and drains it to the confluence of the sinuses. The tip of the guide cannula (CMA Microdialysis, N. Chelmsford, Mass.) was then positioned adjacent to either side of the exposed pineal before the skull was closed with dental cement. The rats were allowed to recover for 24 hours before experimentation.
as §1, with “entanglement.” for “entanglement. All pharmacological agents with molecular weights less than 6,0000 Daltons were delivered to the pineal through the microdialysis tubing. All drugs were infused after dissolving in artificial CSF solution at final concentrations indicated and for the duration described in the figure legends.”
The analytical condition for the simultaneous detection of 5-HT/NAS/melatonin was based on Drijffiout et al. (J. Neurochem. 61: 936-942 (1993)) with minor modifications. A Shimadzu pump (Shimadzu, Columbia, USA) was used in conjunction with a Shimadzu fluorescence detector (FD, excitation: 280 nm, emission: 345 nm). […]

[1] = ISO 1 uM infused into pineal for 2.5 hours during the day (14:30 to 17:00), days 7-10 of microdialysis, single rat
[2] = dibutyryl cAMP 10 mM infused through the microdialysis tube during the day

| Structure (SMILES) | NAT RNA expression in pineal sections (in situ hybridization) (NAT; ISO 1 uM infused through dialysis membrane during the day, 12th day of microdialysis, n=5 rats) | effect on serotonin (5-HT) output as melatonin output increases (pineal gland; [1]) | time after ISO treatment at which melatonin reaches a maximum (pineal gland; [1]) | time after ISO withdrawal within which melatonin decreases (pineal gland; [1]) | time after infusion at which melatonin levels begin to increase (pineal gland; [1]) | NAT gene induction in pineal sections (in situ hybridization) (NAT; [2]) | melatonin production (pineal gland; [2]) |
| --- | --- | --- | --- | --- | --- | --- | --- |
| CC(C)NCC(O)c1ccc(O)c(O)c1 (stereo not shown) [ISO, Isoprenaline] | restricted to the region surrounding the probe membrane | decreases in a perfectly inverse manner | 2 h | ≤ 1 h | 1 h |  |  |
| CCCC(=O)Nc1ncnc2c1ncn2[C@@H]1O[C@@H]2COP(=O)(O)O[C@H]2[C@H]1OC(=O)CCC [dibutyryl-cAMP] |  |  |  |  |  | NAT gene induction is detected | activated |

From patent US20050059977A1, “Monitoring circadian activity” (priority 2003, published 2005)
